{"source": "patent US11167007B2", "about": "“FOXM1 modulators and uses thereof” (City of Hope, priority 2016, dated 2021)", "target": "T1, AR (Homo sapiens, UniProt P10275)", "T1 sequence (P10275 1-920)": "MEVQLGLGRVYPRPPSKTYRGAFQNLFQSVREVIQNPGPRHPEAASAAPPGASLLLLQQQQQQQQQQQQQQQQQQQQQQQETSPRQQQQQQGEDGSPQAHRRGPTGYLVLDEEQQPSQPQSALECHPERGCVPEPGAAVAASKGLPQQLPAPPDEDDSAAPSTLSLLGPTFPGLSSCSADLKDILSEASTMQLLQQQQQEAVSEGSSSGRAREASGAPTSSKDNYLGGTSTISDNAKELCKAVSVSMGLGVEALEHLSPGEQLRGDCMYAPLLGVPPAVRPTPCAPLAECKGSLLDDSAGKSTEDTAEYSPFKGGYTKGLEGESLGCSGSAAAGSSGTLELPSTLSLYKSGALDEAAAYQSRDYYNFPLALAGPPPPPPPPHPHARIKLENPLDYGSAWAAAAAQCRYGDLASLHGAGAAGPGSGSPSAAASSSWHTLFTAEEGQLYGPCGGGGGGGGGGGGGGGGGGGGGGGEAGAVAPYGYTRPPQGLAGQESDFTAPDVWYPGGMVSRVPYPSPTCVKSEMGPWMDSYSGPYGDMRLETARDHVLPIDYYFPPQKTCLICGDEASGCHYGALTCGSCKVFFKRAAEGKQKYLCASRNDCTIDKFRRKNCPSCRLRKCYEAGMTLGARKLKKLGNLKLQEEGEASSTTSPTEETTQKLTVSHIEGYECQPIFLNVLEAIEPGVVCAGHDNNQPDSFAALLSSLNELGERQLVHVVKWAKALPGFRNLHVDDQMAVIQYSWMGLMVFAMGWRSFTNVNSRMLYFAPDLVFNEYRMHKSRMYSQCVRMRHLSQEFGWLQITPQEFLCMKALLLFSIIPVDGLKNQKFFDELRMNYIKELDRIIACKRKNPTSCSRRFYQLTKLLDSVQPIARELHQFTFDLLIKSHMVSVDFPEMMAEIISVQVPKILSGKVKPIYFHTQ", "test": "FRET-based AR conformation change reporter (CFP-AR-YFP, CARY) in GT1-7 cells", "type": "cell-based, mouse", "parameters": "Full length AR with cyan fluorescent protein (CFP) or yellow fluorescent protein (YFP) fused to either end (CARY); expressed in transfected cells", "description": "Creation of stable C-AR-Y reporter cell lines. Cell lines listed above were either transfected with a plasmid or a virus containing the CFP-AR-YFP construct preceding an IRES and hygromycin resistance gene and clonal stable cell lines selected. Qualification criteria for the transfected cell lines were described by Jones et al, ACS Chem Biol, 3(7):412-8 (2008).\nScreen for AR-modulators. Screening was performed essentially as described by Jones et al, ACS Chem Biol, 3(7):412-8 (2008). Briefly, C-AR-Y reporter GTI-7 were transferred to 96 well plates and treated with library compounds for 24 hours. […] The compounds to be tested were from the NCI/DTP Open Chemical Repository's Approved Oncology Drugs Set II, Diversity Set II and Mechanistic Set. […] After 24 hours, medium was aspirated and FRET was measured as previously described using a monochromator-based fluorescence plate reader (M1000, Tecan, Inc.). Jones et al, ACS Chem Biol, 3(7):412-8 (2008). […]\nIn order to identify potential cell-type selective AR modulators, the FRET-based assay of AR conformation change was utilized. […] This produces an accurate and quantifiable read-out of AR activity. […] Candidate hits were then further evaluated by dose response. […] In addition to FRET, AR transcriptional activity was also assessed in several cell lines by transfecting cells with a luciferase reporter driven by the human PSA promoter. […]", "note": "“Also recorded” adds a separate entry of the source.", "data": [{"smiles": "C=C(NC(=O)C(=C)NC(=O)c1csc(C2=N[C@@H]3c4csc(n4)[C@H]4NC(=O)c5csc(n5)[C@H]([C@](C)(O)[C@@H](C)O)NC(=O)[C@H]5CSC(=N5)/C(=C/C)NC(=O)[C@H]([C@@H](C)O)NC(=O)c5csc(n5)[C@]3(CC2)NC(=O)[C@H](C)NC(=O)C(=C)NC(=O)C(=C)NC(=O)[C@H](C(C)C)N[C@@H]2C=Cc3c([C@H](C)O)cc(nc3[C@H]2O)C(=O)O[C@@H]4C)n1)C(N)=O", "note": "[NSC285116, siomycin A]", "values": [{"measurement": "inhibition of DHT-induced AR conformation change", "setting": "dose response, GT1-7 cells, FIG. 1B", "value": "dose dependent inhibition"}, {"measurement": "AR inhibitor (antagonist) activity in words", "setting": "neuronal GT1-7 cells, FRET or luciferase", "value": "greatest potency; also recorded: demonstrated antagonist activity"}]}]}
